# Counter-ions that a name gives are not always drawn.
# How the values were obtained:
# [1] = Stability test of salts of compound 1 (HPLC, XRD); format: physicochemical
# Method: 30 mg of the compound was weighed and added into an 8 mL glass bottle, and then was placed under the condition of room temperature (25° C., closed), high humidity (room temperature/75% RH, open) and light (25° C. closed, white light: 5000 Lux, ultraviolet 282 μW/cm2). samples were taken on the 5th, 10th, and 30th day for detection (HPLC, XRD).
# [2] = Dynamic water adsorption (DVS) test of compound 1 solid forms; format: physicochemical; conditions: about 10 mg solid form
# Method: About 10 mg of the solid form of the compound 1 was taken for dynamic water adsorption (DVS) test.
# [3] = Illumination 5K lux closed, day 5
# [4] = Illumination 5K lux closed, day 10
SMILES,"TRS (%) ([1]; 25° C. closed, day 5)","XPRD ([1]; 25° C. closed, day 5)","TRS (%) ([1]; 25° C. closed, day 10)","XPRD ([1]; 25° C. closed, day 10)","TRS (%) ([1]; 25° C. closed, day 30)","XPRD ([1]; 25° C. closed, day 30)","TRS (%) ([1]; 25° C./75% RH open, day 5)","XPRD ([1]; 25° C./75% RH open, day 5)","TRS (%) ([1]; 25° C./75% RH open, day 10)","XPRD ([1]; 25° C./75% RH open, day 10)","TRS (%) ([1]; 25° C./75% RH open, day 30)","XPRD ([1]; 25° C./75% RH open, day 30)","TRS (%) [1, 3]","XPRD [1, 3]","TRS (%) [1, 4]","XPRD [1, 4]","TRS (%) ([1]; Initial sample, day 0)","XPRD ([1]; Initial sample, day 0)",XRPD after DVS [2]
CN[C@@H](C)C(=O)N[C@H]1CN(S(=O)(=O)c2cccc(S(=O)(=O)N3CC[C@H]4CC[C@@H](C(=O)NC(c5ccccc5)c5ccccc5)N4C(=O)[C@@H](NC(=O)[C@H](C)NC)C3)c2)CC[C@H]2CCC(C(=O)NC(c3ccccc3)c3ccccc3)N2C1=O (stereo partly drawn) [Compound 1 di-p-toluenesulfonate amorphous Form XVI],1.66%,Amorphous,1.71%,Amorphous,1.80%,Amorphous,1.56%,Amorphous,1.66%,Amorphous,1.88%,Amorphous,1.89%,Amorphous,2.40%,Amorphous,1.66%,Amorphous,–
CN[C@@H](C)C(=O)N[C@H]1CN(S(=O)(=O)c2cccc(S(=O)(=O)N3CC[C@H]4CC[C@@H](C(=O)NC(c5ccccc5)c5ccccc5)N4C(=O)[C@@H](NC(=O)[C@H](C)NC)C3)c2)CC[C@H]2CCC(C(=O)NC(c3ccccc3)c3ccccc3)N2C1=O (stereo partly drawn) [Compound 1 dimethanesulfonate crystalline Form XVIII],2.51%,Crystalline Form,2.57%,Crystalline,2.55%,Crystalline,–,–,–,–,–,–,2.63%,Crystalline,2.64%,Crystalline,2.44%,Crystalline,No change
CN[C@@H](C)C(=O)N[C@H]1CN(S(=O)(=O)c2cccc(S(=O)(=O)N3CC[C@H]4CC[C@@H](C(=O)NC(c5ccccc5)c5ccccc5)N4C(=O)[C@@H](NC(=O)[C@H](C)NC)C3)c2)CC[C@H]2CCC(C(=O)NC(c3ccccc3)c3ccccc3)N2C1=O (stereo partly drawn) [XIV],–,–,–,–,–,–,–,–,–,–,–,–,–,–,–,–,–,–,No change
CN[C@@H](C)C(=O)N[C@H]1CN(S(=O)(=O)c2cccc(S(=O)(=O)N3CC[C@H]4CC[C@@H](C(=O)NC(c5ccccc5)c5ccccc5)N4C(=O)[C@@H](NC(=O)[C@H](C)NC)C3)c2)CC[C@H]2CCC(C(=O)NC(c3ccccc3)c3ccccc3)N2C1=O (stereo partly drawn) [compound 1 dihydrochloride amorphous form V],0.72%,Amorphous,0.77%,Amorphous,0.83%,Amorphous,0.81%,Amorphous,0.77%,Amorphous,0.79%,Amorphous,1.81%,Amorphous,2.54%,Amorphous,0.73%,Amorphous,No change
CN[C@@H](C)C(=O)N[C@H]1CN(S(=O)(=O)c2cccc(S(=O)(=O)N3CC[C@H]4CC[C@@H](C(=O)NC(c5ccccc5)c5ccccc5)N4C(=O)[C@@H](NC(=O)[C@H](C)NC)C3)c2)CC[C@H]2CCC(C(=O)NC(c3ccccc3)c3ccccc3)N2C1=O (stereo partly drawn) [compound 1 disulfate amorphous form XXIII],2.45%,Amorphous,2.72%,Amorphous,4.83%,Amorphous,2.69%,Amorphous,3.14%,Amorphous,5.13%,Amorphous,3.66%,Amorphous,5.50%,Amorphous,1.96%,Amorphous,–

# Reference: US12630553B2 (Ascentage Pharma (Suzhou) Co., Ltd., priority 2020, dated 2026)
